Measurements reported in patent US20240415914A1, “Water Dispersible Cannabinoid Compositions” (priority 2021, published 2024).

Assay: Stability of cannabinoid and Vitamin E components of Beverage 1 (AB White) stored at 8° C. and 21-25° C., LCMSMS over 570 days
Assay type: physicochemical
Conditions: for Stability in AB White, 8° C. (content by LCMSMS): beverage stored at 8° C.; for Stability in AB White, 21-25° C. (content by LCMSMS): beverage stored at 21-25° C.
Protocol: The LCMSMS was calibrated for 0-1000 ng/ml cannabinoids with the same resin material used in the preparation of the concentrates. At each time period, 100 ml of beverage was diluted with 10 ml of methanol and injected into the LCMSMS for analysis.

With CCCCCc1cc(O)c2c(c1)OC(C)(C)c1ccc(C)cc1-2 [CBN, cannabinol] the “Stability in AB White, 8° C. (content by LCMSMS)” value (day 0) was 2.79 µg/mL, the “Stability in AB White, 8° C. (content by LCMSMS)” value (day 1) was 2.77 µg/mL and the “Stability in AB White, 8° C. (content by LCMSMS)” value (day 2) was 2.72 µg/mL. For the same compound, the “Stability in AB White, 8° C. (content by LCMSMS)” value (day 3) was 2.73 µg/mL, the “Stability in AB White, 8° C. (content by LCMSMS)” value (day 5) was 2.76 µg/mL and the “Stability in AB White, 8° C. (content by LCMSMS)” value (day 8) was 2.75 µg/mL. The “Stability in AB White, 8° C. (content by LCMSMS)” value (day 9) was 2.76 µg/mL, the “Stability in AB White, 8° C. (content by LCMSMS)” value (day 10) was 2.79 µg/mL and the “Stability in AB White, 8° C. (content by LCMSMS)” value (day 11) was 2.71 µg/mL. For the same compound, the “Stability in AB White, 8° C. (content by LCMSMS)” value (day 12) was 2.80 µg/mL, the “Stability in AB White, 8° C. (content by LCMSMS)” value (day 15) was 2.79 µg/mL and the “Stability in AB White, 8° C. (content by LCMSMS)” value (day 16) was 2.77 µg/mL. For the same compound, the “Stability in AB White, 8° C. (content by LCMSMS)” value (day 17) was 2.82 µg/mL, the “Stability in AB White, 8° C. (content by LCMSMS)” value (day 18) was 2.71 µg/mL and the “Stability in AB White, 8° C. (content by LCMSMS)” value (day 19) was 2.71 µg/mL. For the same compound, the “Stability in AB White, 8° C. (content by LCMSMS)” value (day 22) was 2.76 µg/mL, the “Stability in AB White, 8° C. (content by LCMSMS)” value (day 23) was 2.71 µg/mL and the “Stability in AB White, 8° C. (content by LCMSMS)” value (day 24) was 2.75 µg/mL. For the same compound, the “Stability in AB White, 8° C. (content by LCMSMS)” value (day 25) was 2.75 µg/mL, the “Stability in AB White, 8° C. (content by LCMSMS)” value (day 26) was 2.76 µg/mL and the “Stability in AB White, 8° C. (content by LCMSMS)” value (day 29) was 2.76 µg/mL. The “Stability in AB White, 8° C. (content by LCMSMS)” value (day 30) was 2.78 µg/mL, the “Stability in AB White, 8° C. (content by LCMSMS)” value (day 60) was 2.68 µg/mL and the “Stability in AB White, 8° C. (content by LCMSMS)” value (day 90) was 2.74 µg/mL. The “Stability in AB White, 8° C. (content by LCMSMS)” value (day 120) was 2.72 µg/mL, the “Stability in AB White, 8° C. (content by LCMSMS)” value (day 150) was 2.69 µg/mL and the “Stability in AB White, 8° C. (content by LCMSMS)” value (day 180) was 2.77 µg/mL. For the same compound, the “Stability in AB White, 8° C. (content by LCMSMS)” value (day 210) was 2.75 µg/mL, the “Stability in AB White, 8° C. (content by LCMSMS)” value (day 240) was 2.70 µg/mL and the “Stability in AB White, 8° C. (content by LCMSMS)” value (day 270) was 2.75 µg/mL. For the same compound, the “Stability in AB White, 8° C. (content by LCMSMS)” value (day 300) was 2.71 µg/mL, the “Stability in AB White, 8° C. (content by LCMSMS)” value (day 330) was 2.75 µg/mL and the “Stability in AB White, 8° C. (content by LCMSMS)” value (day 360) was 2.68 µg/mL. The “Stability in AB White, 8° C. (content by LCMSMS)” value (day 390) was 2.67 µg/mL, the “Stability in AB White, 8° C. (content by LCMSMS)” value (day 420) was 2.70 µg/mL and the “Stability in AB White, 8° C. (content by LCMSMS)” value (day 450) was 2.70 µg/mL. The “Stability in AB White, 8° C. (content by LCMSMS)” value (day 480) was 2.66 µg/mL, the “Stability in AB White, 8° C. (content by LCMSMS)” value (day 510) was 2.60 µg/mL and the “Stability in AB White, 8° C. (content by LCMSMS)” value (day 540) was 2.56 µg/mL. For the same compound, the “Stability in AB White, 8° C. (content by LCMSMS)” value (day 570) was 2.56 µg/mL, the “Stability in AB White, 21-25° C. (content by LCMSMS)” value (day 0) was 2.79 µg/mL and the “Stability in AB White, 21-25° C. (content by LCMSMS)” value (day 1) was 2.79 µg/mL. For the same compound, the “Stability in AB White, 21-25° C. (content by LCMSMS)” value (day 2) was 2.81 µg/mL, the “Stability in AB White, 21-25° C. (content by LCMSMS)” value (day 3) was 2.73 µg/mL and the “Stability in AB White, 21-25° C. (content by LCMSMS)” value (day 5) was 2.80 µg/mL. The “Stability in AB White, 21-25° C. (content by LCMSMS)” value (day 8) was 2.71 µg/mL, the “Stability in AB White, 21-25° C. (content by LCMSMS)” value (day 9) was 2.78 µg/mL and the “Stability in AB White, 21-25° C. (content by LCMSMS)” value (day 10) was 2.77 µg/mL. For the same compound, the “Stability in AB White, 21-25° C. (content by LCMSMS)” value (day 11) was 2.80 µg/mL, the “Stability in AB White, 21-25° C. (content by LCMSMS)” value (day 12) was 2.75 µg/mL and the “Stability in AB White, 21-25° C. (content by LCMSMS)” value (day 15) was 2.81 µg/mL. For the same compound, the “Stability in AB White, 21-25° C. (content by LCMSMS)” value (day 16) was 2.75 µg/mL, the “Stability in AB White, 21-25° C. (content by LCMSMS)” value (day 17) was 2.70 µg/mL and the “Stability in AB White, 21-25° C. (content by LCMSMS)” value (day 18) was 2.78 µg/mL. The “Stability in AB White, 21-25° C. (content by LCMSMS)” value (day 19) was 2.73 µg/mL, the “Stability in AB White, 21-25° C. (content by LCMSMS)” value (day 22) was 2.69 µg/mL and the “Stability in AB White, 21-25° C. (content by LCMSMS)” value (day 23) was 2.68 µg/mL. The “Stability in AB White, 21-25° C. (content by LCMSMS)” value (day 24) was 2.79 µg/mL, the “Stability in AB White, 21-25° C. (content by LCMSMS)” value (day 25) was 2.75 µg/mL and the “Stability in AB White, 21-25° C. (content by LCMSMS)” value (day 26) was 2.69 µg/mL. The “Stability in AB White, 21-25° C. (content by LCMSMS)” value (day 29) was 2.75 µg/mL, the “Stability in AB White, 21-25° C. (content by LCMSMS)” value (day 30) was 2.72 µg/mL and the “Stability in AB White, 21-25° C. (content by LCMSMS)” value (day 60) was 2.63 µg/mL. The “Stability in AB White, 21-25° C. (content by LCMSMS)” value (day 90) was 2.66 µg/mL, the “Stability in AB White, 21-25° C. (content by LCMSMS)” value (day 120) was 2.67 µg/mL and the “Stability in AB White, 21-25° C. (content by LCMSMS)” value (day 150) was 2.77 µg/mL. For the same compound, the “Stability in AB White, 21-25° C. (content by LCMSMS)” value (day 180) was 2.68 µg/mL, the “Stability in AB White, 21-25° C. (content by LCMSMS)” value (day 210) was 2.74 µg/mL and the “Stability in AB White, 21-25° C. (content by LCMSMS)” value (day 240) was 2.71 µg/mL. For the same compound, the “Stability in AB White, 21-25° C. (content by LCMSMS)” value (day 270) was 2.67 µg/mL, the “Stability in AB White, 21-25° C. (content by LCMSMS)” value (day 300) was 2.73 µg/mL and the “Stability in AB White, 21-25° C. (content by LCMSMS)” value (day 330) was 2.75 µg/mL. The “Stability in AB White, 21-25° C. (content by LCMSMS)” value (day 360) was 2.67 µg/mL, the “Stability in AB White, 21-25° C. (content by LCMSMS)” value (day 390) was 2.66 µg/mL and the “Stability in AB White, 21-25° C. (content by LCMSMS)” value (day 420) was 2.62 µg/mL. For the same compound, the “Stability in AB White, 21-25° C. (content by LCMSMS)” value (day 450) was 2.61 µg/mL, the “Stability in AB White, 21-25° C. (content by LCMSMS)” value (day 480) was 2.57 µg/mL and the “Stability in AB White, 21-25° C. (content by LCMSMS)” value (day 510) was 2.66 µg/mL. The “Stability in AB White, 21-25° C. (content by LCMSMS)” value (day 540) was 2.63 µg/mL and the “Stability in AB White, 21-25° C. (content by LCMSMS)” value (day 570) was 2.56 µg/mL.
